Key:
[1] = test system: Freund's complete adjuvant hind paw edema; experiment: Preventative Adjuvant Edema; type: in vivo, rat (Male Sprague Dawley); settings: 25 mg/kg, p.o.; rats; hind paw edema volume day 0 to day 3; dosed day 0, 1 and 2
Experimental: This test is a primary screen for anti-inflammatory drugs.
Male Sprague Dawley rats (180-200 g) are used. The animals have free access water but food is withdrawn 18 hours before testing.
Freund's complete adjuvant is prepared by suspending 5 mg killed and dried Mycobacterium butyricum (Difco) in 1 ml liquid paraffin. The test compounds are dissolved in distilled water or suspended in distilled water with a few drops of Tween 80 according to their solubility. […]
The method is essentially that described by Wax et al., J. Pharmacol. Exp. Ther., 192, 166-171 (1975). Groups of rats are injected intradermally in the left hind paw with 0.1 ml of Freund's complete adjuvant. The test compound or vehicle is administered immediately before the adjuvant, 24 hours and 48 hours after the adjuvant (day 0, 1 and 2). The injected hind paw volume is measured before the injection of adjuvant and 24 hrs. after the last drug administration (day 3) by means of a plethysmometer (Buxco Electronics Inc.). The difference between the hind paw volume on day 0 and day 3 represents the edema volume. Phenylbutazone (50 mg/kg, p.o.) is included as a positive control.
The mean edema volume (expressed as ml±SEM) IS calculated for each group and the percentage protection conferred by the drug is calculated: [formula] where c is the mean edema volume for the untreated controls and t is the mean edema volume for the drug treated group.

[2] = test system: phenylquinone-induced writhing; experiment: Phenylquinone Writhing in Mice; type: in vivo, mouse (Male Swiss albino); settings: 25 mg/kg, p.o., phenylquinone i.p. 60 minutes after dosing, writhes counted over 15 min
Experimental: A further test used to determine the utility of the compounds of the present invention is designated: DRUG EFFECTS ON PHENYLQUINONEINDUCED WRITHING IN MICE
The objective of this test is to determine the ability of test drugs to inhibit the nociceptive (pain) response of mice injected with a chemical irritant. This test is a primary screen for both peripheral and centrally acting analgesic drugs.
Male Swiss albino mice (15-25 g). The animals are fasted for 18 hours prior to use but have free access to water.
Drugs are dissolved or suspended according to their solubility in 0.5% methyl cellulose or 0.5% Tween 80. They are administered by gastric lavage in a volume of 5 ml/kg. For primary screening all drugs are administered at the arbitary dosage of 200 mg/kg, p.o. to a group of 10 mice.
A modification of the method of Siegmund et al., Proc. Soc. Exp. Biol. Med., 95, 729-731 (1957) is used. Groups of 5 mice are dosed with the test compound or vehicle control. Sixty minutes later the animals are injected i.p. with 0.3 ml/20 g body weight of a 0.02% solution of phenylquinone (PBQ; 2-phenyl-1,4-benzoquinone) and placed in individual observation boxes. The number of writhing or abdominal squirming movements made by each mouse during the following 15 min. period is counted. The experiment is repeated with another group of 5 mice and the mean number of writhes per mouse for a group of 10 mice is calculated.
Drug treated and vehicle-treated control groups are compared and the percentage protection conferred by the drug is calculated: [formula] where c=mean number of writhes in the control group where t=mean number of writhes in the test drug group

Row | Compound | % Inhibition (Preventative Adjuvant Edema) [1] | % Inhibition (Phenylquinone Writhing in Mice) [2]
1 | CCc1cccc2c3c([nH]c12)C(CC)(CC(=O)O)CCC3C1CC1 (single isomer, unassigned) [Example 1 f Isomer A, 4-Cyclopropyl-1,8-diethyl-2,3,4,9-tetrahydro-1H-carbazole-1-acetic Acid] | 0% | 31%
2 | CCc1cccc2c3c([nH]c12)C(CC)(CC(=O)O)CCC3C1CC1 (single isomer, unassigned) [Example 1 f Isomer B, 4-Cyclopropyl-1,8-diethyl-2,3,4,9-tetrahydro-1H-carbazole-1-acetic Acid] | 12% | 49%
3 | CCc1cccc2c3c([nH]c12)C(CC)(CC(=O)O)CCC3C1CCCC1 (single isomer, unassigned) [Example 2 c Isomer B, 4-Cyclopentyl-1,8-diethyl-2,3,4,9-tetrahydro-1H-carbazole-1-acetic acid] | 0% | 17%
4 | CCc1cccc2c3c([nH]c12)C(CC)(CC(=O)O)CCC3C1CCCC1 (single isomer, unassigned) [Example 2 d Isomer A, 4-cyclopentyl-1,8-diethyl-2,3,4,9-tetrahydro-1H-carbazole-1-acetic acid] | 0% | 35%
